Measurements as given in PubChem BioAssay (NCI).
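Cells were grown in 96-well plates and exposed to each compound for 48 hours at five concentrations; endpoints were interpolated linearly between bracketing concentrations, or set to the highest concentration if not reached. At the TGI there is no net growth.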

Columns and labels:
Assay in all cases: NCI-60 cell line screen, 48 h
PC-3 prostate = system: PC-3 prostate
SK-MEL-5 melanoma = system: SK-MEL-5 melanoma
RPMI-8226 leukemia = system: RPMI-8226 leukemia
HOP-92 NSCLC = system: HOP-92 NSCLC
NCI-H23 lung = system: NCI-H23 lung
MDA-N = system: MDA-N
SW-620 colon = system: SW-620 colon
DU-145 prostate = system: DU-145 prostate
K-562 leukemia = system: K-562 leukemia
SN12C renal = system: SN12C renal
NCI-H226 lung = system: NCI-H226 lung
SF-268 CNS = system: SF-268 CNS
UACC-257 melanoma = system: UACC-257 melanoma
HOP-62 NSCLC = system: HOP-62 NSCLC
A498 renal = system: A498 renal
OVCAR-8 ovarian = system: OVCAR-8 ovarian
ACHN renal = system: ACHN renal
MDA-MB-231 breast = system: MDA-MB-231 breast
SNB-19 CNS = system: SNB-19 CNS
OVCAR-4 ovarian = system: OVCAR-4 ovarian

| Compound | TGI (PC-3 prostate) [µM] | TGI (SK-MEL-5 melanoma) [µM] | TGI (RPMI-8226 leukemia) [µM] | TGI (HOP-92 NSCLC) [µM] | TGI (NCI-H23 lung) [µM] | TGI (MDA-N) [µM] | TGI (SW-620 colon) [µM] | TGI (DU-145 prostate) [µM] | TGI (K-562 leukemia) [µM] | TGI (SN12C renal) [µM] | TGI (NCI-H226 lung) [µM] | TGI (SF-268 CNS) [µM] | TGI (UACC-257 melanoma) [µM] | TGI (HOP-62 NSCLC) [µM] | TGI (A498 renal) [µM] | TGI (OVCAR-8 ovarian) [µM] | TGI (ACHN renal) [µM] | TGI (MDA-MB-231 breast) [µM] | TGI (SNB-19 CNS) [µM] | TGI (OVCAR-4 ovarian) [µM] |
| --- | --- | --- | --- | --- | --- | --- | --- | --- | --- | --- | --- | --- | --- | --- | --- | --- | --- | --- | --- | --- |
| C=C1C(=O)C[C@H]2C(=C)C(=O)O[C@@H]2C2C1CC[C@@]2(C)O (stereo not given in full) | > 100 | > 100 | > 100 | > 100 | 59.4 | 77.8 | > 100 | > 100 | > 100 | > 100 | 54.3 | > 100 | 56.1 | > 100 | > 100 | > 100 | 25 | 75.2 | > 100 | – |
| CN=c1nc2sc3c(c2c(NC(=S)NC)s1)CCCC3 | > 100 | > 100 | > 100 | > 100 | > 100 | > 100 | > 100 | > 100 | > 100 | > 100 | > 100 | 87.5 | > 100 | > 100 | > 100 | – | > 100 | > 100 | > 100 | > 100 |
| OC1[C@@H]2[C@@H](O)[C@H](O)[C@@H](O)N2C[C@@H]1O (stereo not given in full) | > 100 | > 100 | > 23.5 | > 100 | > 100 | > 100 | > 100 | > 100 | > 100 | > 100 | > 100 | > 100 | > 100 | > 100 | > 100 | > 100 | > 100 | > 100 | > 100 | > 100 |
| O=C1C2CC=CCC2C(=O)N1n1c(Cc2ccc(Cl)cc2)n[nH]c1=O (stereo not given) | > 100 | > 100 | > 100 | > 100 | > 100 | > 100 | > 100 | > 100 | > 100 | > 100 | > 100 | > 100 | > 100 | > 100 | > 100 | > 100 | > 100 | > 100 | – | > 100 |
| COc1cc(OC)c(-c2ccc(OCc3ccccc3)c3c(OC)cc(C)cc23)c2c1C(C)=N[C@H](C)C2 | 3.9 | 4.1 | 3.61 | 3.35 | 4.23 | 4 | 4.68 | 4.16 | 3.43 | 3.74 | 5.52 | 3.56 | 3.91 | 4.16 | 3.93 | 3.68 | 4.01 | 4.18 | 4.54 | 4.01 |
| CN(C(=O)C1=CCC2(CC1)OCCO2)c1ccccc1OS(=O)(=O)C(F)(F)F | > 100 | > 100 | > 100 | > 100 | > 100 | > 100 | > 100 | > 100 | > 100 | > 100 | 85.4 | 97.6 | > 100 | > 100 | > 100 | > 100 | > 100 | > 100 | > 100 | > 100 |
| Cc1cc(C)nc(NC(=O)c2ccc(Br)s2)c1 | > 100 | 17.6 | 16.6 | > 100 | > 100 | > 100 | > 100 | > 100 | > 100 | > 100 | > 100 | > 100 | > 100 | > 100 | > 100 | > 100 | > 100 | 81.6 | > 100 | > 100 |
| CCCn1c2ccccc2c2ccc3c(c21)C(=O)C=CC3=O | > 8.03 | > 10 | 5.4 | 3.8 | 5.99 | 6.43 | 3.27 | > 10 | 2.24 | > 7.53 | > 10 | > 10 | 5.48 | > 10 | > 10 | > 6.96 | 3.59 | 5.08 | > 10 | 4.07 |
| Cc1c([N+](=O)[O-])ccc2c(NCCCN(C)C)ccnc12 | 41.6 | 29.6 | > 100 | 61.5 | 34.6 | 28.4 | 55.6 | > 100 | > 100 | > 100 | 72.5 | > 100 | 31.4 | > 100 | 82.7 | > 100 | > 100 | 56.6 | – | 41 |
| CC(C)(C)NC(NC(C)(C)C)=C(/C=C(/Cl)[N+](=O)[O-])[N+](=O)[O-] | > 100 | > 100 | > 100 | > 100 | > 100 | 59.5 | – | > 100 | > 100 | > 100 | > 100 | > 100 | > 100 | > 100 | > 100 | > 100 | > 100 | > 100 | > 100 | > 100 |
